Test results from patent publication US10878939B2, “Methods and compositions for personalized pain management” (Children's Hospital Medical Center, priority 2014, dated 2020).

Tests used:
[1] = tested on: children undergoing tonsillectomy; test: Respiratory depression and prolonged PACU stay due to RD by ABCB1 genotype (Example 7)
From the text: Children 6-15 years undergoing elective outpatient tonsillectomy were eligible for the study and recruited on the day of surgery. […] Clinical criteria for OSA designation included sleep disordered breathing with a history of snoring and either sleep pauses lasting more than 10 seconds or daytime drowsiness. Children were excluded from the study if they or their parents were non-English speaking.
(§1) All participants received standard perioperative care. Anesthesia was induced using sevoflurane followed by a propofol (2 mg/kg) bolus to facilitate endotracheal intubation. Anesthesia was maintained with sevoflurane without the use of neuromuscular blockade. […] All children receive prophylactic ondansetron (0.1 mg/kg) and dexamethasone (0.1 mg/kg) intraoperatively.
Duration of PACU stay (time to achieve PACU discharge readiness) was defined as the duration in PACU before achieving the following discharge criteria. […] This is discharge readiness time is different from actual PACU discharge time as delays due to social reasons (e.g. waiting for car rides) were not included.
Metrics for analgesic effectiveness and opioid-related adverse effects were recorded for each participant. For the metrics for opioid-related adverse effects, this study focused on two clinically and economically important outcomes: clinical RD and prolonged PACU stay (>90 minutes) secondary to respiratory depression assessed consistently by the research coordinator.
(§2) Blood was collected from each participant in the operating room under anesthesia and the DNA was isolated the same day and stored at −20 degree Celsius. Batched genotyping was performed after clinical data was entered on all study participants. The TaqMan allelic discrimination system assays and Genotyper Softerware Version 1.0.1 (Life Technologies, Applied Biosystems, Forest City, Calif.) were used to analyse and report the following ABCB1 polymorphisms: rs1045642, rs2032582, rs1128503, rs2229109, and rs9282564.
(§3) Prior to analysis, data qualities were examined. For the ABCB1 variants, allelic and genotype frequencies were assessed in white and black patients separately, and Hardy Weinberg equilibrium (HWE) was tested. To analyze binary outcomes (RD, prolonged PACU secondary to RD and analgesic intervention need), logistic regression was performed. […] Thus, maximum FLACC scores were analyzed using a zero-inflated negative binomial model to appropriately capture the distribution of this variable. […] To select the best fitting model, log likelihood, Akaike and Bayesian Information criterion were compared, and residuals were examined. […] To assess the single SNP association with the outcomes, additive models were used, in which the genotypes were recoded and tested as continuous variables. For the four bi-allelic SNPs, genotypes were recoded to 0, 1 and 2 according to the number of minor alleles. For rs2032582, GG genotype was recoded as 0; GA and GT genotypes were combined and recoded as 1, and TT and TA genotypes as 2. Statistical modeling was conducted with white and black patients separately and combined. When races were combined, the effects of race and race*SNP interaction were tested.

[2] = tested on: children undergoing tonsillectomy; test: Postoperative analgesia measurements by ABCB1 genotype (Example 7); conditions: for Maximum FLACC: median (IQR); for Post-Operative morphine: patients with at least one post-operative intervention
Method: as §1, §2, §3

[3] = Blacks, ABCB1 Rs1128503 CC, N=24
[4] = Blacks, ABCB1 Rs1128503 TC, N=18
[5] = Blacks, ABCB1 Rs1128503 TT, N=2
[6] = Blacks, ABCB1 Rs2032582 GA, N=1
[7] = Blacks, ABCB1 Rs2032582 GG, N=35
[8] = Blacks, ABCB1 Rs2032582 GT, N=8
[9] = Blacks, ABCB1 Rs2229109 CA, N=1
[10] = Blacks, ABCB1 Rs2229109 CC, N=43
[11] = Blacks, ABCB1 Rs9282564 AA, N=41
[12] = Blacks, ABCB1 Rs9282564 GA, N=3
[13] = Blacks, ABCB1 rs10456542 CC, N=27
[14] = Blacks, ABCB1 rs10456542 TC, N=14
[15] = Blacks, ABCB1 rs10456542 TT, N=3
[16] = Whites, ABCB1 Rs1128503 CC, N=70
[17] = Whites, ABCB1 Rs1128503 TC, N=102
[18] = Whites, ABCB1 Rs1128503 TT, N=47
[19] = Whites, ABCB1 Rs2032582 GA, N=7
[20] = Whites, ABCB1 Rs2032582 GG, N=65
[21] = Whites, ABCB1 Rs2032582 GT, N=100
[22] = Whites, ABCB1 Rs2032582 TA, N=1
[23] = Whites, ABCB1 Rs2032582 TT, N=46
[24] = Whites, ABCB1 Rs2229109 CA, N=14
[25] = Whites, ABCB1 Rs2229109 CC, N=205
[26] = Whites, ABCB1 Rs9282564 AA, N=171
[27] = Whites, ABCB1 Rs9282564 GA, N=46
[28] = Whites, ABCB1 Rs9282564 GG, N=2
[29] = Whites, ABCB1 rs10456542 CC, N=49
[30] = Whites, ABCB1 rs10456542 TC, N=100
[31] = Whites, ABCB1 rs10456542 TT, N=70

CN1CC[C@]23c4c5ccc(O)c4O[C@H]2[C@@H](O)C=C[C@H]3[C@H]1C5 [morphine]
patients with RD ([1]; 263 patients): 19%
patients with prolonged PACU stay due to RD ([1]; 263 patients): 11%
Prolonged PACU due to RD % ([1]; Blacks, ABCB1 rs1045642 CC, N=27): 7%
Prolonged PACU due to RD % ([1]; Blacks, ABCB1 rs1045642 TC, N=14): 21%
Prolonged PACU due to RD % ([1]; Blacks, ABCB1 rs1045642 TT, N=3): 33%
Prolonged PACU due to RD % ([1]; Blacks, ABCB1 rs1128503 CC, N=24): 8%
Prolonged PACU due to RD % ([1]; Blacks, ABCB1 rs1128503 TC, N=18): 17%
Prolonged PACU due to RD % ([1]; Blacks, ABCB1 rs1128503 TT, N=2): 50%
Prolonged PACU due to RD % ([1]; Blacks, ABCB1 rs2032582 GA, N=1): 0%
Prolonged PACU due to RD % ([1]; Blacks, ABCB1 rs2032582 GG, N=35): 11%
Prolonged PACU due to RD % ([1]; Blacks, ABCB1 rs2032582 GT, N=8): 25%
Prolonged PACU due to RD % ([1]; Blacks, ABCB1 rs2229109 CA, N=1): 0%
Prolonged PACU due to RD % ([1]; Blacks, ABCB1 rs2229109 CC, N=43): 14%
Prolonged PACU due to RD % ([1]; Blacks, ABCB1 rs9282564 AA, N=41): 10%
Prolonged PACU due to RD % ([1]; Blacks, ABCB1 rs9282564 GA, N=3): 67%
Prolonged PACU due to RD % ([1]; Whites, ABCB1 rs1045642 CC, N=49): 4%
Prolonged PACU due to RD % ([1]; Whites, ABCB1 rs1045642 TC, N=100): 15%
Prolonged PACU due to RD % ([1]; Whites, ABCB1 rs1045642 TT, N=70): 10%
Prolonged PACU due to RD % ([1]; Whites, ABCB1 rs1128503 CC, N=70): 9%
Prolonged PACU due to RD % ([1]; Whites, ABCB1 rs1128503 TC, N=102): 13%
Prolonged PACU due to RD % ([1]; Whites, ABCB1 rs1128503 TT, N=47): 11%
Prolonged PACU due to RD % ([1]; Whites, ABCB1 rs2032582 GA, N=7): 0%
Prolonged PACU due to RD % ([1]; Whites, ABCB1 rs2032582 GG, N=65): 9%
Prolonged PACU due to RD % ([1]; Whites, ABCB1 rs2032582 GT, N=100): 14%
Prolonged PACU due to RD % ([1]; Whites, ABCB1 rs2032582 TA, N=1): 0%
Prolonged PACU due to RD % ([1]; Whites, ABCB1 rs2032582 TT, N=46): 9%
Prolonged PACU due to RD % ([1]; Whites, ABCB1 rs2229109 CA, N=14): 14%
Prolonged PACU due to RD % ([1]; Whites, ABCB1 rs2229109 CC, N=205): 11%
Prolonged PACU due to RD % ([1]; Whites, ABCB1 rs9282564 AA, N=171): 8%
Prolonged PACU due to RD % ([1]; Whites, ABCB1 rs9282564 GA, N=46): 20%
Prolonged PACU due to RD % ([1]; Whites, ABCB1 rs9282564 GG, N=2): 100%
median of maximum FLACC scores ([2]; 263 patients): 3
patients who needed analgesic intervention(s) ([2]; 263 patients): 62%
Analges. % (analgesic interventions %) [2, 3]: 88%
Maximum FLACC [2, 3]: 5 (4-8)
Post-Operative morphine ([2]; Blacks, ABCB1 Rs1128503 CC, N=24, mean ± SD): 0.12 ± 0.08 mg/kg
Analges. % (analgesic interventions %) [2, 4]: 89%
Maximum FLACC [2, 4]: 6 (3-9)
Post-Operative morphine ([2]; Blacks, ABCB1 Rs1128503 TC, N=18, mean ± SD): 0.13 ± 0.05 mg/kg
Analges. % (analgesic interventions %) [2, 5]: 100%
Maximum FLACC [2, 5]: 4 (0-8)
Post-Operative morphine ([2]; Blacks, ABCB1 Rs1128503 TT, N=2, mean ± SD): 0.08 ± 0.03 mg/kg
Analges. % (analgesic interventions %) [2, 6]: 100%
Maximum FLACC [2, 6]: 4 (4-4)
Post-Operative morphine [2, 6]: 0.08 mg/kg
Analges. % (analgesic interventions %) [2, 7]: 91%
Maximum FLACC [2, 7]: 5 (3-8)
Post-Operative morphine ([2]; Blacks, ABCB1 Rs2032582 GG, N=35, mean ± SD): 0.12 ± 0.07 mg/kg
Analges. % (analgesic interventions %) [2, 8]: 75%
Maximum FLACC [2, 8]: 8 (2-9)
Post-Operative morphine ([2]; Blacks, ABCB1 Rs2032582 GT, N=8, mean ± SD): 0.11 ± 0.04 mg/kg
Analges. % (analgesic interventions %) [2, 9]: 100%
Maximum FLACC [2, 9]: 8 (8-8)
Post-Operative morphine [2, 9]: 0.04 mg/kg
Analges. % (analgesic interventions %) [2, 10]: 88%
Maximum FLACC [2, 10]: 5 (3-8)
Post-Operative morphine ([2]; Blacks, ABCB1 Rs2229109 CC, N=43, mean ± SD): 0.12 ± 0.06 mg/kg
Analges. % (analgesic interventions %) [2, 11]: 88%
Maximum FLACC [2, 11]: 5 (3-8)
Post-Operative morphine ([2]; Blacks, ABCB1 Rs9282564 AA, N=41, mean ± SD): 0.12 ± 0.07 mg/kg
Analges. % (analgesic interventions %) [2, 12]: 100%
Maximum FLACC [2, 12]: 8 (8-10)
Post-Operative morphine ([2]; Blacks, ABCB1 Rs9282564 GA, N=3, mean ± SD): 0.10 ± 0.00 mg/kg
Analges. % (analgesic interventions %) [2, 13]: 89%
Maximum FLACC [2, 13]: 5 (4-8)
Post-Operative morphine ([2]; Blacks, ABCB1 rs10456542 CC, N=27, mean ± SD): 0.12 ± 0.07 mg/kg
Analges. % (analgesic interventions %) [2, 14]: 86%
Maximum FLACC [2, 14]: 7 (1-8)
Post-Operative morphine ([2]; Blacks, ABCB1 rs10456542 TC, N=14, mean ± SD): 0.12 ± 0.05 mg/kg
Analges. % (analgesic interventions %) [2, 15]: 100%
Maximum FLACC [2, 15]: 8 (3-8)
Post-Operative morphine ([2]; Blacks, ABCB1 rs10456542 TT, N=3, mean ± SD): 0.12 ± 0.11 mg/kg
Analges. % (analgesic interventions %) [2, 16]: 57%
Maximum FLACC [2, 16]: 3 (0-5)
Post-Operative morphine ([2]; Whites, ABCB1 Rs1128503 CC, N=70, mean ± SD): 0.09 ± 0.04 mg/kg
Analges. % (analgesic interventions %) [2, 17]: 57%
Maximum FLACC [2, 17]: 2 (0-5)
Post-Operative morphine ([2]; Whites, ABCB1 Rs1128503 TC, N=102, mean ± SD): 0.10 ± 0.05 mg/kg
Analges. % (analgesic interventions %) [2, 18]: 53%
Maximum FLACC [2, 18]: 1 (0-5)
Post-Operative morphine ([2]; Whites, ABCB1 Rs1128503 TT, N=47, mean ± SD): 0.08 ± 0.04 mg/kg
Analges. % (analgesic interventions %) [2, 19]: 43%
Maximum FLACC [2, 19]: 2 (1-5)
Post-Operative morphine ([2]; Whites, ABCB1 Rs2032582 GA, N=7, mean ± SD): 0.09 ± 0.05 mg/kg
Analges. % (analgesic interventions %) [2, 20]: 58%
Maximum FLACC [2, 20]: 4 (0-6)
Post-Operative morphine ([2]; Whites, ABCB1 Rs2032582 GG, N=65, mean ± SD): 0.09 ± 0.04 mg/kg
Analges. % (analgesic interventions %) [2, 21]: 57%
Maximum FLACC [2, 21]: 2 (0-5)
Post-Operative morphine ([2]; Whites, ABCB1 Rs2032582 GT, N=100, mean ± SD): 0.09 ± 0.05 mg/kg
Analges. % (analgesic interventions %) [2, 22]: 100%
Maximum FLACC [2, 22]: 8 (8-8)
Post-Operative morphine [2, 22]: 0.21 mg/kg
Analges. % (analgesic interventions %) [2, 23]: 52%
Maximum FLACC [2, 23]: 1 (1-5)
Post-Operative morphine ([2]; Whites, ABCB1 Rs2032582 TT, N=46, mean ± SD): 0.09 ± 0.04 mg/kg
Analges. % (analgesic interventions %) [2, 24]: 50%
Maximum FLACC [2, 24]: 2 (1-4)
Post-Operative morphine ([2]; Whites, ABCB1 Rs2229109 CA, N=14, mean ± SD): 0.06 ± 0.02 mg/kg
Analges. % (analgesic interventions %) [2, 25]: 57%
Maximum FLACC [2, 25]: 2 (0-5)
Post-Operative morphine ([2]; Whites, ABCB1 Rs2229109 CC, N=205, mean ± SD): 0.09 ± 0.05 mg/kg
Analges. % (analgesic interventions %) [2, 26]: 56%
Maximum FLACC [2, 26]: 2 (0-5)
Post-Operative morphine ([2]; Whites, ABCB1 Rs9282564 AA, N=171, mean ± SD): 0.09 ± 0.04 mg/kg
Analges. % (analgesic interventions %) [2, 27]: 54%
Maximum FLACC [2, 27]: 2 (0-4)
Post-Operative morphine ([2]; Whites, ABCB1 Rs9282564 GA, N=46, mean ± SD): 0.09 ± .05 mg/kg
Analges. % (analgesic interventions %) [2, 28]: 100%
Maximum FLACC [2, 28]: 7 (6-7)
Post-Operative morphine ([2]; Whites, ABCB1 Rs9282564 GG, N=2, mean ± SD): 0.16 ± 0.07 mg/kg
Analges. % (analgesic interventions %) [2, 29]: 63%
Maximum FLACC [2, 29]: 4 (0-6)
Post-Operative morphine ([2]; Whites, ABCB1 rs10456542 CC, N=49, mean ± SD): 0.09 ± 0.03 mg/kg
Analges. % (analgesic interventions %) [2, 30]: 52%
Maximum FLACC [2, 30]: 2 (0-4)
Post-Operative morphine ([2]; Whites, ABCB1 rs10456542 TC, N=100, mean ± SD): 0.09 ± 0.05 mg/kg
Analges. % (analgesic interventions %) [2, 31]: 57%
Maximum FLACC [2, 31]: 2 (1-5)
Post-Operative morphine ([2]; Whites, ABCB1 rs10456542 TT, N=70, mean ± SD): 0.10 ± 0.05 mg/kg
post-operative morphine in patients who needed intervention ([2]; average): 0.10 ± 0.05 mg/kg
